Structures are written as SMILES. pIC50: −log10 of the molar value.

In series [1] the target is ErbB2 insYVMA (HER2-YVMA, SEQ ID NO: 2) (Homo sapiens, UniProt P04626, INS775YVMA/P1170A). Description: biochemical. The conditions noted are these: ErbB2 insYVMA enzyme assay; read-out: Assay 1 IC50.
The target in series [2] is MDR1 (P-gp) (Homo sapiens (Human), UniProt P08183). Description: MDR1 transfected MDCKII canine Mdr1 knockout permeability/efflux, Assay 7. The settings on record: dog, MDCK-MDR1.
In series [3] the target is EGFR (Homo sapiens (Human), UniProt P00533). The series can be described thus: ErbB enzyme assay (CisBio HTRF KinEASE-TK), Assay 3. The class given is biochemical. In outline: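 Kinase + 250 nM biotin TK-substrate, 1 mM ATP, cpd (3-fold dil.), HEPES pH 7.4/10 mM MgCl2/0.01% Triton/2% DMSO; 30 min 22 °C. Quench w/ Sa-XL665 + TK-Ab-Cryptate, 1 h, HTRF. IC50 = 50 POC on 4PL fit.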

For series [4], the target named is EGFR wild type (EGFR WT) (Homo sapiens (Human), UniProt P00533). Description: Cellular phosphorylation assay, EGF-stimulated EGFR phosphorylation in engineered NIH 3T3 cells, Phospho-EGFR DuoSet IC ELISA, Assay 5. The class given is cell-based. An outline of the steps:
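NIH 3T3 cells expressing EGFR WT (20,000/well, attached overnight) were exposed to serially diluted compound for 1 h at 37 °C, then stimulated with 100 ng/ml rEGF for 10 min. Phospho-EGFR in lysates measured by sandwich ELISA optical density; IC50 from curves.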
(An ELISA detects its analyte on a solid surface through an enzyme-linked reagent.)

In series [5] the target is ErbB2 with Exon 20 YVMA insertion (HER2-YVMA) (Homo sapiens (Human), UniProt P04626, INS775YVMA). Description: Cellular phosphorylation assay, constitutive ErbB2 phosphorylation (Y1196) in engineered NIH 3T3 cells, Assay 4. The class given is cell-based. In outline: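 Engineered NIH 3T3 cells expressing HER2-YVMA treated with compounds 1 h at 37 °C, then formaldehyde-fixed and methanol-permeabilized. pErbB2 Y1196 detected by in-cell infrared immunofluorescence, normalized to GAPDH. IC50 from the normalized curves.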

In series [6] the target is ErbB2 WT (Homo sapiens (Human), UniProt P04626). Description: ErbB enzyme assay (CisBio HTRF KinEASE-TK), Assay 2. The class given is biochemical. In outline:
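ErbB2 phosphorylates 250 nM biotin-TK substrate at 1 mM ATP in 25 mM HEPES pH 7.4, 10 mM MgCl2, 0.01% Triton X-100 and 2% DMSO, for 30 min at 22 °C. Product is detected by HTRF with Sa-XL665 and TK-Ab-Cryptate. Percent of control is set by DMSO-only wells and pre-quenched wells.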
(TR-FRET usually uses a lanthanide donor and a delayed reading to cut background.)

Series [7] concerns the target BCRP (Homo sapiens (Human), UniProt Q9UNQ0). Description: BCRP transfected MDCKII canine Mdr1 knockout permeability/efflux, Assay 9. The settings on record: dog, Assay 9 Pe Ratio, efflux ratio Papp(B-A)/Papp(A-B), BCRP transfected MDCKII canine Mdr1 knockout.
Method: BCRP transfected MDCKII cells (Assay 8) and BCRP transfected MDCKII canine Mdr1 knockout cells (Assay 9) were cultured and plated according to manufacturer's recommendations.
Both positive and negative controls were used to assess functionality of P-gp or BCRP efflux in the assays. Stock solutions for assay controls and the test article were prepared in DMSO for final test concentration of 1 μM. Final organic concentration in the assay was 1%. All dosing solutions contained 10 μM lucifer yellow to monitor MDCKII cell monolayer integrity.
For the apical to basolateral determination (A to B), 75 μL of the test article in transport buffer were added to the apical side of the individual transwells and 250 μL of basolateral media, without compound or lucifer yellow, were added to each well. For the basolateral to apical determination (B to A), 250 μL of test article in transport buffer were added to each well and 75 μL transport buffer, without compound or lucifer yellow, were added to each transwell. All tests were performed in triplicate, and each compound was tested for both apical to basolateral and basolateral to apical transport. The plates were incubated for 2 hours on a Lab-Line Instruments Titer Orbital Shaker (VWR, West Chester, PA) at 50 rpm and 37° C. with 5% CO2. All culture plates were removed from the incubator, 50 μL of media were removed from the apical and basolateral portion of each well, and added to 150 μL of 1 μM labetalol in 2:1 acetonitrile (ACN): H2O, v/v.
The plates were read using a Molecular Devices (Sunnyvale, CA) Gemini Fluorometer to evaluate the lucifer yellow concentrations at excitation/emission wavelengths of 425/535 nm. […] The plates were sealed, and the contents of each well analyzed by LC MS/MS. The compound concentrations were determined from the ratio of the peak areas of the compound to the internal standard (labetalol) in comparison to the dosing solution.
A MDS Sciex API 4000 (Applied Biosystems, Foster City, CA) mass spectrometer was used for detection of the analytes in the ion spray positive mode. Analyte responses were measured by multiple reaction monitoring (“MRM”) of transitions unique to each compound (the protonated precursor ion and selected product ions for each test article and m/z 329 to m/z 162 for labetalol, the internal standard.
The total run time, including re-equilibration, for a single injection was 1.2 minutes. […] The total run time, including re-equilibration, for a single injection was 0.61 minutes.
An efflux ratio is calculated from the mean apical to basolateral (A-B) Papp data and basolateral to apical (B-A) Papp data: Efflux ratio=Papp(B−A)/Papp(A−B)

Chain of ErbB2 with Exon 20 YVMA insertion (HER2-YVMA) (P04626 other isoform, or with tags, fused parts or gaps ins YVMA behind 775): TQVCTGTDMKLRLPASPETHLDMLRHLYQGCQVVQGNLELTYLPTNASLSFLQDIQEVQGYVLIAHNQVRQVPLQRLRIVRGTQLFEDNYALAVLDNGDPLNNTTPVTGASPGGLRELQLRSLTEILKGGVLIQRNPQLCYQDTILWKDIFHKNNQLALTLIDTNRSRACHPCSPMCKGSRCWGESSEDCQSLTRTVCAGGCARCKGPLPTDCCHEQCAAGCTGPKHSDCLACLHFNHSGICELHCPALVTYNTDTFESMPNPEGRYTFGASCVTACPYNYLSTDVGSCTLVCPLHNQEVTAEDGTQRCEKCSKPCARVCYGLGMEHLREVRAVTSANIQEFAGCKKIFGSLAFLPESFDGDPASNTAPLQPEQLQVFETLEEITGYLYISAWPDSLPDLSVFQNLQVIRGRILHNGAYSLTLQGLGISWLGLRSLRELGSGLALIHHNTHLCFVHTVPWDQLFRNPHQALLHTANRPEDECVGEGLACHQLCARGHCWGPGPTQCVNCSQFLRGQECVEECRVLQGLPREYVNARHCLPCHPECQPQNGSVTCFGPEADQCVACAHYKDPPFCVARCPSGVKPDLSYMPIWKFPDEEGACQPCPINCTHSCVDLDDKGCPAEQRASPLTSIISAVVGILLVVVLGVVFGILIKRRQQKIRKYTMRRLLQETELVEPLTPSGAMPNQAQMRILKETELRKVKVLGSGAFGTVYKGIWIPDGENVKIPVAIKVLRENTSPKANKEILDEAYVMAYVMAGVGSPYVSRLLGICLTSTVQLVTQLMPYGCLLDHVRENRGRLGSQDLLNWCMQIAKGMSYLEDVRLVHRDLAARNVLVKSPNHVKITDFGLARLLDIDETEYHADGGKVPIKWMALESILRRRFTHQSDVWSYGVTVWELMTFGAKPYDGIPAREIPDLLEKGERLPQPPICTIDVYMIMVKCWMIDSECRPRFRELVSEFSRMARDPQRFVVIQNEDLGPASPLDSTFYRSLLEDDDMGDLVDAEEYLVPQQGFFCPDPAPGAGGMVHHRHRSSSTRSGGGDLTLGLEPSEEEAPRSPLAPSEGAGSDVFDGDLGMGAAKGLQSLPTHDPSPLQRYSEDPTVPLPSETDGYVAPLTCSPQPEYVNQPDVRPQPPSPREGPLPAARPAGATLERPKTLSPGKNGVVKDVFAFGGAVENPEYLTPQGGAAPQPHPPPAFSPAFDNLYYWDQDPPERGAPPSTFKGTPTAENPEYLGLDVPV
Chain of ErbB2 insYVMA (HER2-YVMA, SEQ ID NO: 2) (P04626 with tags, fused parts or gaps INS775YVMA/P1170A limits assumed): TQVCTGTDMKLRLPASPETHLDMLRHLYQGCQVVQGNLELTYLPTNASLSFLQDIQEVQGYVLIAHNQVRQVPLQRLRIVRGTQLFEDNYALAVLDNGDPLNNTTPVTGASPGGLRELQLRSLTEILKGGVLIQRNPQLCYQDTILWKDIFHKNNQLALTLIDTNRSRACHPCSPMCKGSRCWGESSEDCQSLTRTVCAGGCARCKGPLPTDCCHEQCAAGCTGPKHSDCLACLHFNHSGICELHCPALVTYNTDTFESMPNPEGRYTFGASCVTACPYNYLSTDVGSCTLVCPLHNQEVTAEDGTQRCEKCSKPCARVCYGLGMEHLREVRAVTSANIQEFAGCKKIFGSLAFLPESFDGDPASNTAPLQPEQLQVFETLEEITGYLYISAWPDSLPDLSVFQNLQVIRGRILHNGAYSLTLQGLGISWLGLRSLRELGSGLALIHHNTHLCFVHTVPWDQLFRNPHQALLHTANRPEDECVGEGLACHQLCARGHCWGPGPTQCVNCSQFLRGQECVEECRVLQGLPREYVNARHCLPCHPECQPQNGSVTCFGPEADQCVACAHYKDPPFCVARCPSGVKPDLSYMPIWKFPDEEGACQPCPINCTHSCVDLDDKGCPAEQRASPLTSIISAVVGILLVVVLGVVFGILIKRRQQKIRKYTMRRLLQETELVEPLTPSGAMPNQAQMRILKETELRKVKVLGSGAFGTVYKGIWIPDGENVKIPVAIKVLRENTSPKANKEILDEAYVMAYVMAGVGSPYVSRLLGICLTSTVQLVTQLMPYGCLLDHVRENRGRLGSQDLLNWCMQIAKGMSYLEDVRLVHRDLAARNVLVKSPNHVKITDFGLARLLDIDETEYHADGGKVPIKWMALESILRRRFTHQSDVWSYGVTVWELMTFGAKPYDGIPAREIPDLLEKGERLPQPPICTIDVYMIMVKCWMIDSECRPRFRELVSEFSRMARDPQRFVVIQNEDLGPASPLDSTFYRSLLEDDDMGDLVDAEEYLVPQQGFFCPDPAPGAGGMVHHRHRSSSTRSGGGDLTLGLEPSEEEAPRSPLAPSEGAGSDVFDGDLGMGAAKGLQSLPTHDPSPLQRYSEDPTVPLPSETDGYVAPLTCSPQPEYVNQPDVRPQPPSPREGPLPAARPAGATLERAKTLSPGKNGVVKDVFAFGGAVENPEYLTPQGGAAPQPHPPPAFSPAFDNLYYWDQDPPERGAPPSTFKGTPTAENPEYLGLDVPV
Chain of MDR1 (P-gp) (P08183 whole entry): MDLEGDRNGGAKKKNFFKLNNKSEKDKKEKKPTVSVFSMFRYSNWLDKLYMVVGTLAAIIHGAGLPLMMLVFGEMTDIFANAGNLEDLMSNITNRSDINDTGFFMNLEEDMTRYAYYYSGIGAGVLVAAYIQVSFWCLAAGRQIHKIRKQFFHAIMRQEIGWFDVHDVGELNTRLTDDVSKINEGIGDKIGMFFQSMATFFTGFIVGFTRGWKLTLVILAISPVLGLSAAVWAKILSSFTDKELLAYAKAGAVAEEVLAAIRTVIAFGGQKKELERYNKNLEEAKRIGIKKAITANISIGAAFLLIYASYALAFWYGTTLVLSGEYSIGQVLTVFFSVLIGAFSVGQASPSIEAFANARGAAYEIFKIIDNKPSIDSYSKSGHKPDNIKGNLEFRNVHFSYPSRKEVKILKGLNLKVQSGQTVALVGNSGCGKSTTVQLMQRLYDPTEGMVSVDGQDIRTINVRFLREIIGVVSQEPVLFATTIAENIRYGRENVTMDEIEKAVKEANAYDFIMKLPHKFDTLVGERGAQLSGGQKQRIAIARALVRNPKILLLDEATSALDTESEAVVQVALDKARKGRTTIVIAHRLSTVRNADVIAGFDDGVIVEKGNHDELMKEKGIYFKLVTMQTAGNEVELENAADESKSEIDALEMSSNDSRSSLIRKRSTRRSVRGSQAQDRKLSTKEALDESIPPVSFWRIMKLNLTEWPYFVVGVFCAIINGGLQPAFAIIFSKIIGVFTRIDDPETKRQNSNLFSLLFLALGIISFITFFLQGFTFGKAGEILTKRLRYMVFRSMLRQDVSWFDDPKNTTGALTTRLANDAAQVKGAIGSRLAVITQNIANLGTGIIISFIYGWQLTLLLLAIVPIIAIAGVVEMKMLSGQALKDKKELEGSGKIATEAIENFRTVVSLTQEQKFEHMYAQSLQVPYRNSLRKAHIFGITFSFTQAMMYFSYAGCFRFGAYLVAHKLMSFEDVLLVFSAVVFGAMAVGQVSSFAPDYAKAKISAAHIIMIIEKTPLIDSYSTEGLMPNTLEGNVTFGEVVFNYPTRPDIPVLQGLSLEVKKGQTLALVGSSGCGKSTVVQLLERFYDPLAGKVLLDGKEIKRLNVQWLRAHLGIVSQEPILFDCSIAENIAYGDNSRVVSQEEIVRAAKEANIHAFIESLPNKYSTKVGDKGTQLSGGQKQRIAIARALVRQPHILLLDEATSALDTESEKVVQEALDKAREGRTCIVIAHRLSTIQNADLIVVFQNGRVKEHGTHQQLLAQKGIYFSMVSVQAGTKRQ
Chain of ErbB2 WT (P04626 23-1255): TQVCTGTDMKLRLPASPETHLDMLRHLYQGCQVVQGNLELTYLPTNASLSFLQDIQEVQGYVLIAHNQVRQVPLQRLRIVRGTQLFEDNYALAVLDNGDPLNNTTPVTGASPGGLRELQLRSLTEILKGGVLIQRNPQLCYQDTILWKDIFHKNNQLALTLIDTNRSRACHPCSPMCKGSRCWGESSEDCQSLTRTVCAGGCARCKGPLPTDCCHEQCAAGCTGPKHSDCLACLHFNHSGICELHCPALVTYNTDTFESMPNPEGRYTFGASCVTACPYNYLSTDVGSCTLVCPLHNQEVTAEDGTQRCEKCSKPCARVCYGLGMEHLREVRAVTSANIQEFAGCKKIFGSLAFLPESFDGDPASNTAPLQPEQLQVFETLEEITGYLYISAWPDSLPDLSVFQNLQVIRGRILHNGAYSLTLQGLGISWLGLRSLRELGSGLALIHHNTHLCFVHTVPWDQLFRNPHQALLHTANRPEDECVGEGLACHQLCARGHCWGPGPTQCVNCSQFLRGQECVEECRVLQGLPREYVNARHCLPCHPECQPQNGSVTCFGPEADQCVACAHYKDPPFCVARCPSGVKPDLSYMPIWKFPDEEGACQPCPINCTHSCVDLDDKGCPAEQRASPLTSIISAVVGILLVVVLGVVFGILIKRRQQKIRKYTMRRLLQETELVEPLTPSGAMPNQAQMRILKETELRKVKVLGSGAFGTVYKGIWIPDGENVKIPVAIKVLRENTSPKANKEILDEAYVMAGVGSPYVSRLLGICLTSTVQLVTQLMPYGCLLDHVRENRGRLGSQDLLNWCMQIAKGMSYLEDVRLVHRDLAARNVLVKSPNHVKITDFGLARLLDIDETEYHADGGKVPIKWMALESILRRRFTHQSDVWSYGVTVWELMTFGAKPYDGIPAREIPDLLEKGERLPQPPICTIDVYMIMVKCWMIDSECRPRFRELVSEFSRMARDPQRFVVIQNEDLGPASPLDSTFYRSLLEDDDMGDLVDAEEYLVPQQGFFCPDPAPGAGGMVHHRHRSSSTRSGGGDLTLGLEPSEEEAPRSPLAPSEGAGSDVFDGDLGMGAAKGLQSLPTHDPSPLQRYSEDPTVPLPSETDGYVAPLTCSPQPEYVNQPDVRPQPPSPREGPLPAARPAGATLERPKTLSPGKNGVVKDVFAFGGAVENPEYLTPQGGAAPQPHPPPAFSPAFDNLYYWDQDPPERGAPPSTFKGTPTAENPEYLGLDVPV

Turning to `Cc1cc(Nc2ncnc3cnc(N(C)[C@H]4C[C@](C)(O)C4)nc23)ccc1Oc1ccc2c(c1)ncn2C` [Example 171, (1r,3r)-1-methyl-3-(methyl(8-((3-methyl-4-((1-methyl-1H-benzo[d]imidazol-5-yl)oxy)phenyl)amino)pyrimido[5,4-d]pyrimidin-2-yl)amino)cyclobutan-1-ol], the negative logarithm of the IC50 (pIC50) in series [1] was 7.87; in series [3] it was 6.33; in series [4], at most 5.30; in series [5] it was 8.15; in series [6] it was 8.23. Further, the values for the efflux ratio at 2 h, 1 μM in series [2] and in series [7] were 1.9 and 8.6, respectively.

On to `Cc1cc(Nc2ncnc3cnc(N4CCN[C@H](C(F)(F)F)C4)nc23)ccc1Oc1ccc2c(c1)ncn2C` [Example 172, (S)—N-(3-methyl-4-((1-methyl-1H-benzo[d]imidazol-5-yl)oxy)phenyl)-6-(3-(trifluoromethyl)piperazin-1-yl)pyrimido[5,4-d]pyrimidin-4-amine], for which the negative-log IC50 (pIC50) in series [1] was 7.51; in series [3] it was 5.05; in series [4] it was at most 5.30; in series [5], 7.58; in series [6] it was 7.45. Besides, the efflux ratio at 2 h, 1 μM in series [2] amounted to 1.5; in series [7], 2.

As to `Cc1cc(Nc2ncnc3cnc(N4CC[C@H](C#N)C4)nc23)ccc1Oc1ccc2c(c1)ncn2C` [Example 173, (S)-1-(8-((3-methyl-4-((1-methyl-1H-benzo[d]imidazol-5-yl)oxy)phenyl)amino)pyrimido[5,4-d]pyrimidin-2-yl)pyrrolidine-3-carbonitrile], the pIC50 in series [1] was 7.66; in series [3], at most 5.00; in series [4] it was at most 5.30; in series [5], 7.65; in series [6], 7.30. Besides, the results for the efflux ratio at 2 h, 1 μM in series [2] and in series [7] were 1.2 and 4.3, respectively.

In the case of `Cc1cc(Nc2ncnc3cnc(N(C)C4COC4)nc23)ccc1Oc1ccc2c(c1)ncn2C` [Example 175, N2-methyl-N8-(3-methyl-4-((1-methyl-1H-benzo[d]imidazol-5-yl)oxy)phenyl)-N2-(oxetan-3-yl)pyrimido[5,4-d]pyrimidine-2,8-diamine], the pIC50 in series [1] is 8.38; in series [3] it was 5.19; in series [4], at most 5.30; in series [5], 7.86; in series [6], 8.20. In addition, the efflux ratio at 2 h, 1 μM in series [2] stood at 1.4; in series [7] it was 1.5.

As for `Cc1cc(Nc2ncnc3cnc(N(C)[C@H]4CCC[C@@H]4O)nc23)ccc1Oc1ccc2c(c1)ncn2C` [Example 176, (1S,2S)-2-(methyl(8-((3-methyl-4-((1-methyl-1H-benzo[d]imidazol-5-yl)oxy)phenyl)amino)pyrimido[5,4-d]pyrimidin-2-yl)amino)cyclopentan-1-ol], the negative logarithm of the IC50 (pIC50) is 7.49 in series [1]; 5.90 in series [3]; at most 5.30 in series [4]; 7.60 in series [5]; 7.51 in series [6]. For the same compound, the efflux ratio at 2 h, 1 μM is 1.4 in series [2] and 13.5 in series [7].

As for `Cc1cc(Nc2ncnc3cnc(N4CC[C@](C)(O)C4)nc23)ccc1Oc1ccc2c(c1)ncn2C` [Example 179, (S)-3-methyl-1-(8-((3-methyl-4-((1-methyl-1H-benzo[d]imidazol-5-yl)oxy)phenyl)amino)pyrimido[5,4-d]pyrimidin-2-yl)pyrrolidin-3-ol], the pIC50 is 8.00 in series [1]; 5.42 in series [3]; at most 5.30 in series [4]; 7.55 in series [5]; 7.89 in series [6]. In addition, the efflux ratio at 2 h, 1 μM worked out at 1.9 in series [2] and 15.3 in series [7].

As for `Cc1cc(Nc2ncnc3cnc(N4CCN5CCOC[C@H]5C4)nc23)ccc1Oc1ccc2c(c1)ncn2C` [Example 180, (R)-6-(hexahydropyrazino[2,1-c][1,4]oxazin-8(1H)-yl)-N-(3-methyl-4-((1-methyl-1H-benzo[d]imidazol-5-yl)oxy)phenyl)pyrimido[5,4-d]pyrimidin-4-amine], the negative logarithm of the IC50 (pIC50) was 7.88 in series [1]; 5.34 in series [3]; at most 5.30 in series [4]; 7.81 in series [5]; 7.68 in series [6]. Moreover, the efflux ratio at 2 h, 1 μM in series [2] was 1.3; in series [7] it was 2.7.

On to `Cc1cc(Nc2ncnc3cnc(N4CCN[C@@H](C(F)(F)F)C4)nc23)ccc1Oc1ccc2c(c1)ncn2C` [Example 182, (R)—N-(3-methyl-4-((1-methyl-1H-benzo[d]imidazol-5-yl)oxy)phenyl)-6-(3-(trifluoromethyl)piperazin-1-yl)pyrimido[5,4-d]pyrimidin-4-amine], for which the negative-log IC50 (pIC50) was 7.53 in series [1]; 5.50 in series [3]; at most 5.30 in series [4]; 7.75 in series [5]; 7.46 in series [6]. For the same compound, the efflux ratio at 2 h, 1 μM in series [2] worked out at 1.3; in series [7] it was 1.9.

With `Cc1cc(Nc2ncnc3cnc(N(C)[C@H]4C[C@@H](O)C4)nc23)ccc1Oc1ccc2c(c1)ncn2C` [Example 183], the pIC50 in series [1] is 8.36; in series [3], 5.98; in series [4], at most 5.30; in series [5], 8.29; in series [6] it was 8.24. The efflux ratio at 2 h, 1 μM was determined as 1.7 in series [2] and 19.5 in series [7].

Take `Cc1cc(Nc2ncnc3cnc(N4CC[C@@H](C#N)C4)nc23)ccc1Oc1ccc2c(c1)ncn2C` [Example 184, (R)-1-(8-((3-methyl-4-((1-methyl-1H-benzo[d]imidazol-5-yl)oxy)phenyl)amino)pyrimido[5,4-d]pyrimidin-2-yl)pyrrolidine-3-carbonitrile]: the pIC50 is 7.93 in series [1]; at most 5.00 in series [3]; at most 5.30 in series [4]; 7.69 in series [5]; 7.42 in series [6]. Further, the efflux ratio at 2 h, 1 μM in series [2] was determined as 1.8; in series [7] it was 4.2.

`Cc1cc(Nc2ncnc3cnc(N4C[C@@H](O)C(F)(F)C4)nc23)ccc1Oc1ccc2c(c1)ncn2C` [Example 185, (R)-4,4-difluoro-1-(8-((3-methyl-4-((1-methyl-1H-benzo[d]imidazol-5-yl)oxy)phenyl)amino)pyrimido[5,4-d]pyrimidin-2-yl)pyrrolidin-3-ol]: the pIC50 in series [1] was 7.61; in series [3], at most 5.00; in series [4] it was at most 5.30; in series [5] it was 7.60; in series [6], 7.92. Further, the values for the efflux ratio at 2 h, 1 μM in series [2] and in series [7] were 2 and 31.7, respectively.

For the compound `Cc1cc(Nc2ncnc3cnc(N(C)[C@H]4C[C@H](O)C4)nc23)ccc1Oc1ccc2c(c1)ncn2C` [Example 186, (1r,3r)-3-(methyl(8-((3-methyl-4-((1-methyl-1H-benzo[d]imidazol-5-yl)oxy)phenyl)amino)pyrimido[5,4-d]pyrimidin-2-yl)amino)cyclobutan-1-ol], the pIC50 was 8.24 in series [1]; 6.23 in series [3]; at most 5.30 in series [4]; 8.39 in series [5]; 8.43 in series [6]. The values for the efflux ratio at 2 h, 1 μM in series [2] and in series [7] were 1.4 and 24.2, respectively.

Turning to `Cc1cc(Nc2ncnc3cnc(N4CCN5CCOC[C@@H]5C4)nc23)ccc1Oc1ccc2c(c1)ncn2C` [Example 190, (S)-6-(hexahydropyrazino[2,1-c][1,4]oxazin-8(1H)-yl)-N-(3-methyl-4-((1-methyl-1H-benzo[d]imidazol-5-yl)oxy)phenyl)pyrimido[5,4-d]pyrimidin-4-amine], the pIC50 in series [1] was 7.67; in series [3], 5.09; in series [4] it was at most 5.30; in series [5] it was 7.85; in series [6], 7.46. Besides, the efflux ratio at 2 h, 1 μM in series [2] was determined as 1.3; in series [7], 4.7.

With `Cc1cc(Nc2ncnc3cnc(N(C)[C@@H]4CCC[C@H]4O)nc23)ccc1Oc1ccc2c(c1)ncn2C` [Example 193, (1R,2R)-2-(methyl(8-((3-methyl-4-((1-methyl-1H-benzo[d]imidazol-5-yl)oxy)phenyl)amino)pyrimido[5,4-d]pyrimidin-2-yl)amino)cyclopentan-1-ol], the negative-log IC50 (pIC50) in series [1] was 7.67; in series [3] it was 5.34; in series [4] it was at most 5.30; in series [5], 7.34; in series [6], 7.51. Moreover, the efflux ratio at 2 h, 1 μM worked out at 1.6 in series [2] and 7 in series [7].

Usually pIC50 stands for the IC50 on a negative log10 scale, so that one unit is a factor of ten. What is called efflux ratio is the permeability from basolateral to apical divided by that in the opposite direction, in the common usage.

The values are drawn from patent US11834453B2, “Substituted pyrimido[5,4-d]pyrimidines as HER2 inhibitors” (Array BioPharma Inc., priority 2020, dated 2023).
